Tests used:
[1] = test system: RKO (RKOp27) human colon adenocarcinoma cells; experiment: Alamar Blue cell viability assay, anti-proliferative/cytotoxic activity on proliferating RKO subclones; format: cell-based; settings: RKOp27, 72 h, RKO p27 uninduced (proliferating) cells, value = class bound given in Table A, read-out: −logIC50 RKO p27 uninduced (proliferating) (converted)
Method in brief: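 RKOp27 subclones (5000 cells/well) were exposed 24 h after seeding to semi-log compound dilutions in DMEM with 10% FCS, in quadruplicate, for 72 h at 37 °C. Viability was read by Alamar Blue fluorescence (544/590 nm) relative to untreated cells (1% DMSO medium). IC50 came from concentration-effect curves and is reported as −log IC50 [mol/l].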

[2] = test system: subclones of RKO colon adenocarcinoma cells (RKOp27 or RKOp21) arrested by Ponasterone A; experiment: Alamar Blue cell viability assay, cell cycle specific mode of action: cells arrested by ectopic p27Kip1 induced by Ponasterone A versus proliferating cells; format: cell-based; settings: Homo sapiens, RKO p27 induced (arrested) cells, 10 μM Ponasterone A, 72 hours, value = class bound given in Table A, read-out: −logIC50 RKO p27 induced (arrested) (converted)
Method in brief: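 RKOp27 or RKOp21 cells, 15000/well in DMEM/10% FCS, either arrested by p27Kip1 induced with 10 μM Ponasterone A or proliferating without inducer; compound added after 24 h, 72 h at 37° C. Alamar Blue fluorescence (544/590 nm), viability as % of untreated cells; −log IC50 reported.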

Compound	IC50 [1]	IC50 [2]
N#Cc1c(NC(=O)/C=C/c2cccnc2)sc2c1CCC(OC(=O)N1CCCCO1)C2 (stereo not shown) [Example 120, [1,2]Oxazinane-2-carboxylic acid 3-cyano-2-((E)-3-pyridin-3-yl-allanoylamino)-4,5,6,7-tetrahydro-benzo[b]thiophen-6-yl ester]	≤ 0.501 µM	≥ 100 µM
Cc1nocc1CNC(=O)OCC1CCc2c(sc(NC(=O)/C=C/c3cccnc3)c2C#N)C1 (stereo not shown) [Example 64, (3-Methyl-isoxazol-4-ylmethyl)-carbamic acid 3-cyano-2-((E)-3-pyridin-3-yl-allanoylamino)-4,5,6,7-tetrahydro-benzo[b]thiophen-6-ylmethyl ester]	0.501 to 2 µM	≥ 100 µM
N#Cc1c(NC(=O)/C=C/c2cccnc2)sc2c1CCC(OC(=O)NC1CCCCC1)C2 (stereo not shown) [Example 142, Cyclohexyl-carbamic acid 3-cyano-2-((E)-3-pyridin-3-yl-allanoylamino)-4,5,6,7-tetrahydro-benzo[b]thiophen-6-yl ester]	0.501 to 2 µM	≥ 100 µM
COc1cccc(CCC(=O)Nc2sc3c(c2C#N)CCC(OC(=O)NCc2cccnc2)C3)c1 (stereo not shown) [Example 259, Pyridin-3-ylmethyl-carbamic acid 3-cyano-2-[3-(3-methoxy-phenyl)-propanoylamino]-4,5,6,7-tetrahydro-benzo[b]thiophen-6-yl ester]	≤ 0.501 µM	≥ 100 µM
CCOc1ccccc1CCC(=O)Nc1sc2c(c1C#N)CCC(COC(=O)NCc1ccccc1)C2 (stereo not shown) [Example 160, Benzyl-carbamic acid 3-cyano-2-[3-(2-ethoxy-phenyl)-propanoylamino]-4,5,6,7-tetrahydro-benzo[b]thiophen-6-ylmethyl ester]	≤ 0.501 µM	≥ 100 µM
CCOc1ccccc1CCC(=O)Nc1sc2c(c1C#N)CCC(COC(=O)NCc1nccn1C)C2 (stereo not shown) [Example 183, (1-Methyl-1H-imidazol-2-ylmethyl)-carbamic acid 3-cyano-2-[3-(2-ethoxy-phenyl)-propanoylamino]-4,5,6,7-tetrahydro-benzo[b]thiophen-6-ylmethyl ester]	≤ 0.501 µM	≥ 50.1 µM
Cc1nn(C)cc1CNC(=O)OCC1CCc2c(sc(NC(=O)/C=C/c3cccnc3)c2C#N)C1 (stereo not shown) [Example 54, (1,3-Dimethyl-1H-pyrazol-4-ylmethyl)-carbamic acid 3-cyano-2-((E)-3-pyridin-3-yl-allanoylamino)-4,5,6,7-tetrahydro-benzo[b]thiophen-6-ylmethyl ester]	≤ 0.501 µM	≥ 100 µM
CCOc1ccccc1CCC(=O)Nc1sc2c(c1C#N)CCC(COC(=O)NCc1nc(C)cs1)C2 (stereo not shown) [Example 214, (4-Methyl-thiazol-2-ylmethyl)-carbamic acid 3-cyano-2-[3-(2-ethoxy-phenyl)-propanoylamino]-4,5,6,7-tetrahydro-benzo[b]thiophen-6-ylmethyl ester]	≤ 0.501 µM	≥ 100 µM
COCCOC(=O)OC1CCc2c(sc(NC(=O)CCc3cccc(OC)c3)c2C#N)C1 (stereo not shown) [Example 217, Carbonic acid 3-cyano-2-[3-(3-methoxy-phenyl)-propanoylamino]-4,5,6,7-tetrahydro-benzo[b]thiophen-6-yl ester 2-methoxy-ethyl ester]	0.501 to 2 µM	≥ 100 µM
Cc1cc(CNC(=O)OCC2CCc3c(sc(NC(=O)CCc4cccnc4)c3C#N)C2)no1 (stereo not shown) [Example 256, (5-Methyl-isoxazol-3-ylmethyl)-carbamic acid 3-cyano-2-(3-pyridin-3-yl-propanoylamino)-4,5,6,7-tetrahydro-benzo[b]thiophen-6-ylmethyl ester]	0.501 to 2 µM	≥ 100 µM
Cc1oncc1CNC(=O)OC1CCc2c(sc(NC(=O)/C=C/c3cccnc3)c2C#N)C1 (stereo not shown) [Example 58, (5-Methyl-isoxazol-4-ylmethyl)-carbamic acid 3-cyano-2-((E)-3-pyridin-3-yl-allanoylamino)-4,5,6,7-tetrahydro-benzo[b]thiophen-6-yl ester]	0.501 to 2 µM	≥ 100 µM
CCOc1ccccc1CCC(=O)Nc1sc2c(c1C#N)CCC(COC(=O)OCc1ccsn1)C2 (stereo not shown) [Example 202, Carbonic acid 3-cyano-2-[3-(2-ethoxy-phenyl)-propanoylamino]-4,5,6,7-tetrahydro-benzo[b]thiophen-6-ylmethyl ester isothiazol-3-ylmethyl ester]	≤ 0.501 µM	≥ 100 µM
COc1cccc(CCC(=O)Nc2sc3c(c2C#N)CCC(OC(=O)Nc2cccnc2)C3)c1 (stereo not shown) [Example 264, Pyridin-3-yl-carbamic acid 3-cyano-2-[3-(3-methoxy-phenyl)-propanoylamino]-4,5,6,7-tetrahydro-benzo[b]thiophen-6-yl ester]	0.501 to 2 µM	≥ 50.1 µM
COCCNC(=O)OC1CCc2c(sc(NC(=O)CCc3cccc(OC)c3)c2C#N)C1 (stereo not shown) [Example 218, (2-Methoxy-ethyl)-carbamic acid 3-cyano-2-[3-(3-methoxy-phenyl)-propanoylamino]-4,5,6,7-tetrahydro-benzo[b]thiophen-6-yl ester]	≤ 0.501 µM	≥ 100 µM
Cc1ccncc1/C=C/C(=O)Nc1sc2c(c1C#N)CCC(COC(=O)N1CCC(O)CC1)C2 (stereo not shown) [Example 133, 4-Hydroxy-piperidine-1-carboxylic acid 3-cyano-2-[(E)-3-(4-methyl-pyridin-3-yl)-allanoylamino]-4,5,6,7-tetrahydro-benzo[b]thiophen-6-ylmethyl ester]	≤ 0.501 µM	≥ 100 µM
Cc1cc(CNC(=O)OC2CCc3c(sc(NC(=O)/C=C/c4cccnc4)c3C#N)C2)no1 (stereo not shown) [Example 42, (5-Methyl-isoxazol-3-ylmethyl)-carbamic acid 3-cyano-2-((E)-3-pyridin-3-yl-allanoylamino)-4,5,6,7-tetrahydro-benzo[b]thiophen-6-yl ester]	0.501 to 2 µM	≥ 100 µM
CC1CCCN1C(=O)OC1CCc2c(sc(NC(=O)/C=C/c3cccnc3)c2C#N)C1 (stereo not shown) [Example 93, 2-Methylpyrrolidine-1-carboxylic acid 3-cyano-2-((E)-3-pyridin-3-yl-allanoylamino)-4,5,6,7-tetrahydro-benzo[b]thiophen-6-yl ester]	≤ 0.501 µM	≥ 100 µM
CCOc1ccccc1CCC(=O)Nc1sc2c(c1C#N)CCC(OC(=O)NCCn1ccnc1)C2 (stereo not shown) [Example 163, (2-Imidazol-1-yl-ethyl)-carbamic acid 3-cyano-2-[3-(2-ethoxy-phenyl)-propanoylamino]-4,5,6,7-tetrahydro-benzo[b]thiophen-6-yl ester]	≤ 0.501 µM	≥ 10 µM
CCNC(=O)OCC1CCc2c(sc(NC(=O)CCc3ccccc3OCC)c2C#N)C1 (stereo not shown) [Example 159, Ethyl-carbamic acid 3-cyano-2-[3-(2-ethoxy-phenyl)-propanoylamino]-4,5,6,7-tetrahydro-benzo[b]thiophen-6-ylmethyl ester]	≤ 0.501 µM	≥ 100 µM
CCNC(=O)OC1CCc2c(sc(NC(=O)/C=C/c3cccnc3)c2C#N)C1 (stereo not shown) [Example 3, Ethyl-carbamic acid 3-cyano-2-((E)-3-pyridin-3-yl-allanoylamino)-4,5,6,7-tetrahydro-benzo[b]thiophen-6-yl ester]	≤ 0.501 µM	≥ 100 µM
CN(C)C(=O)OCC1CCc2c(sc(NC(=O)/C=C/c3cccnc3)c2C#N)C1 (stereo not shown) [Example 74, Dimethyl-carbamic acid 3-cyano-2-((E)-3-pyridin-3-yl-allanoylamino)-4,5,6,7-tetrahydro-benzo[b]thiophen-6-ylmethyl ester]	≤ 0.501 µM	≥ 100 µM
CN(C(=O)OCC1CCc2c(sc(NC(=O)/C=C/c3cccnc3)c2C#N)C1)C1CCCC1 (stereo not shown) [Example 138, Cyclopentyl-methyl-carbamic acid 3-cyano-2-((E)-3-pyridin-3-yl-allanoylamino)-4,5,6,7-tetrahydro-benzo[b]thiophen-6-ylmethyl ester]	0.501 to 2 µM	≥ 100 µM
CCNC(=O)OC[C@H]1CCc2c(sc(NC(=O)CCc3cccnc3)c2C#N)C1 [Example 156a, (S)-Ethyl-carbamic acid 3-cyano-2-(3-pyridin-3-yl-propanoylamino)-4,5,6,7-tetrahydro-benzo[b]thiophen-6-ylmethyl ester]	0.501 to 2 µM	≥ 100 µM
CCOc1ccccc1/C=C/C(=O)Nc1sc2c(c1C#N)CCC(OC(=O)OCCOC)C2 (stereo not shown) [Example 11, Carbonic acid 3-cyano-2-[(E)-3-(2-ethoxy-phenyl)-allanoylamino]-4,5,6,7-tetrahydro-benzo[b]thiophen-6-yl ester 2-methoxy-ethyl ester]	≤ 0.501 µM	≥ 100 µM
CC(CC(=O)Nc1sc2c(c1C#N)CCC(COC(=O)NCC1CCCO1)C2)c1ccccc1 (stereo not shown) [Example 315, (Tetrahydrofuran-2-ylmethyl)-carbamic acid 3-cyano-2-(3-phenyl-butanoylamino)-4,5,6,7-tetrahydro-benzo[b]thiophen-6-ylmethyl ester]	0.501 to 2 µM	≥ 50.1 µM
CCOc1ccccc1CCC(=O)Nc1sc2c(c1C#N)CCC(COC(=O)OCc1cncs1)C2 (stereo not shown) [Example 215, Carbonic acid 3-cyano-2-[3-(2-ethoxy-phenyl)-propanoylamino]-4,5,6,7-tetrahydro-benzo[b]thiophen-6-ylmethyl ester thiazol-5-ylmethyl ester]	≤ 0.501 µM	≥ 100 µM

From US20110044938A1 (NYCOMED GMBH, priority 2006, published 2011)
